Source: publication PMC4055595, “Pharmacokinetic Compatibility of Ginsenosides and Schisandra Lignans in Shengmai-san: From the Perspective of P-Glycoprotein” (PLoS ONE, 2014)
Like-named read-outs stand apart in the source and are kept apart here.

Key:
[1] = test system: LLC-PK1 cells (lacking P-gp); test: Uptake (intracellular accumulation) of digoxin and ginsenosides in LLC-PK1 cells; type: in vitro ADME; details: for Effect of verapamil on intracellular accumulation: 10 µM verapamil; for Effect of SLE on intracellular accumulation: SLE 2.0 and 10.0 µg/mL
Experimental: (§1) LLC-PK1 cells, a cell line lacking P-gp, and the derived cell line L-MDR1, which over-express human MDR1-encoded P-gp, were grown in minimum essential medium with supplements at 37°C, 5% CO2, and 95% humidity. LLC-PK1 and L-MDR1 cells were seeded at a density of 12×10^6 cells per 150-cm^2 flask and grown for 7 days in medium 199 supplemented with 2 mM glutamine, 10% fetal bovine serum, 10 mg/500 mL of streptomycin, and 10,000 IU/500 mL of penicillin. To ensure a constant expression level of transport protein, L-MDR1 cells were grown in the presence of 640 nM vincristine. Cells were grown as monolayer on polycarbonate membrane filters (Transwell; Costar Corporation, Cambridge, MA) as outlined previously. Transepithelial resistance was measured in each well using a Millicell ERS ohmmeter (Millipore, Bedford, MA); wells registering a resistance of 200 ohms or greater, after correcting for the resistance obtained in control blank wells, were used in the transport experiments.
(§2) LLC-PK1 and L-MDR1 cells were incubated with SLE (2.0 and 10.0 µg/mL) or verapamil (10 µM) for 1.0 h, and then were washed to discard SLE or verapamil before adding 100 µg/mL of GE. The accumulation of GE lasted for 2 h, and the intracellular concentrations of ginsenosides were measured by LC/MS. All experiments were conducted in triplicate.

[2] = target: T1, human MDR1-encoded P-gp (L-MDR1 cells) (Homo sapiens, UniProt P08183); test: Transport of digoxin and ginsenosides across L-MDR1 cell monolayers (efflux ratio); type: in vitro ADME; details: for Effect of verapamil on efflux ratio / Papp / Effect of SLE on efflux ratio / transport: L-MDR1 cells; for Effect of verapamil on efflux ratio / Papp: 10 µM verapamil; for Effect of SLE on efflux ratio / transport: SLE 2.0 and 10.0 µg/mL; for P-gp substrate classification: summary of transport/uptake in LLC-PK1, L-MDR1 and Caco-2 cells with verapamil
T1 sequence (P08183 whole entry): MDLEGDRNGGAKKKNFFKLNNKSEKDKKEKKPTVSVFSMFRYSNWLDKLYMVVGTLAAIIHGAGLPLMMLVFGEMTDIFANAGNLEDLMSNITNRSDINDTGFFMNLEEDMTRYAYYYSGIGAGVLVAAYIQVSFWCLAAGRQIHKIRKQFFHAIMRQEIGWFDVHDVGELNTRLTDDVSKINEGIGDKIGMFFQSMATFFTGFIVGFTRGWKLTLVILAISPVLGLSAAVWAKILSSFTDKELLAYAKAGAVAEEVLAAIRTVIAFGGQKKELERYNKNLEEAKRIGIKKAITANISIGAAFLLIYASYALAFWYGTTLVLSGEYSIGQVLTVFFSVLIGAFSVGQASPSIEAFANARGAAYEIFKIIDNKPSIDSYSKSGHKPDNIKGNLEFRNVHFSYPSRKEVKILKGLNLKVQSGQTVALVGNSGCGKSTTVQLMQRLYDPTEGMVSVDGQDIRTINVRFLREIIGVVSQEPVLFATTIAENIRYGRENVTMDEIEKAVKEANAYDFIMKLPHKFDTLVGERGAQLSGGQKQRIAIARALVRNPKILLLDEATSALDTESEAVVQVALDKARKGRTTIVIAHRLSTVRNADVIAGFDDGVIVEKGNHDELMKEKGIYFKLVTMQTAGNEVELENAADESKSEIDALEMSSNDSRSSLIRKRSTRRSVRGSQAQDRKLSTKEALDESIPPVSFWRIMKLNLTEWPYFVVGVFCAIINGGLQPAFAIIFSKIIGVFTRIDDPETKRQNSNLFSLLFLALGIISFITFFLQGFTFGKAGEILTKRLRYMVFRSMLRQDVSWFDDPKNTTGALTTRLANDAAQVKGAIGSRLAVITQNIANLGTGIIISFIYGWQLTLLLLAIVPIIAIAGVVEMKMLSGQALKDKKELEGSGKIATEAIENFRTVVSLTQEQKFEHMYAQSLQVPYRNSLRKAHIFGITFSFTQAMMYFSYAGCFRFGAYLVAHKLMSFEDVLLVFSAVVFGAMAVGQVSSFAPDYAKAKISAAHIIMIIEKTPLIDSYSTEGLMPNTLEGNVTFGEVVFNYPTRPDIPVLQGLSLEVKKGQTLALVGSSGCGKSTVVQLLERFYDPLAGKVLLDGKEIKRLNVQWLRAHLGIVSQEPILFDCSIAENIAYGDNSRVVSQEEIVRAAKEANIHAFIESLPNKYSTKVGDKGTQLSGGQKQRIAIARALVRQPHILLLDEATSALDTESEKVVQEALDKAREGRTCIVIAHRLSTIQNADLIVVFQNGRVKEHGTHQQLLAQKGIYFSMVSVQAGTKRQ
Experimental: as §1
(§3) The LLC-PK1 and L-MDR1 cells were washed with warm Hank's balanced salt solution HBSS (pH 7.4) twice before transport experiment. HBSS containing verapamil (10 µM), SLE (2.0 and 10.0 µg/mL) or blank HBSS (control) was then loaded into both apical and basolateral chambers. After incubation at 37°C for 1.5 h, GE (100 µg/mL) was added to either the apical or basolateral side to evaluate the transport in absorptive and secretive directions, respectively. The cell monolayer was then incubated for another 2 h. Finally, the concentrations of ginsenosides were determined by LC/MS. All experiments were conducted in triplicate.
(§4) For the transport assay, the apparent permeability (P app, cm/s) in each direction (A→B and B→A) was calculated as follows, where A is the surface area of the membrane inserts (0.0804 cm^2), C 0 is the initial concentration of the compound applied in the donor compartment (2 µM), and △Q is the amount (micromoles) of compound transported over time △t (5 h = 18,000 s): [drawing 1]
(§5) The efflux ratio (ER) was a dimensionless number calculated as the ratio of the apparent permeability in the B→A direction divided by the apparent permeability in the A→B direction. [drawing 2]

P-gp (MDR1) = P-gp (MDR1) (Homo sapiens, UniProt P08183); test: as above; type: in vitro ADME; details: human, read-out: Efflux ratio (Papp BL-AP / Papp AP-BL)
Chain of P-gp (MDR1) (P08183 whole entry): as above
Experimental: as §1, §3, §4, §5

[3] = target: T1, human MDR1-encoded P-gp (L-MDR1 cells); test: Uptake (intracellular concentration) of digoxin and ginsenosides in L-MDR1 cells; type: in vitro ADME
Experimental: as §1, §2

[4] = test system: LLC-PK1 cells (lacking P-gp); test: Transport of digoxin and ginsenosides across LLC-PK1 cell monolayers; type: in vitro ADME; details: for Effect of verapamil on transport (efflux ratio): 10 µM verapamil; for Effect of SLE on transport (AP→BL, BL→AP): SLE 2.0 and 10.0 µg/mL
Experimental: as §1, §3, §4, §5

[5] = Rat plasma pharmacokinetics after 10-day vehicle/SLE and digoxin or GE; type: in vivo, Sprague-Dawley rats; details: for AUC(0-inf): read-out: AUCINF_obs; for MRT inf: read-out: MRTINF_obs
Experimental: This study was carried out in strict accordance with the recommendations in the Guide for the Care and Use of Laboratory Animals of the National Institutes of Health. The protocol was approved by the Committee on the Ethics of Animal Experiments of the China Pharmaceutical University. All surgery was performed under sodium pentobarbital anesthesia, and all efforts were made to minimize suffering. […] The rats were fed with standard laboratory food and water and fasted overnight but with free access to water before the test. To evaluate the effect of long-term treatment with SLE on the pharmacokinetics of ginsenosides, 24 rats were also divided into four groups (group I∼ group IV) with 6 animals each. […] On the 11th day, digoxin was administered intragastrically to rats (group I and group II) at a single dose of 0.5 mg/kg, GE was administered intragastrically to rats (group III and group IV) at a single dose of 120 mg/kg. […] Plasma was obtained by centrifugation at 5000 g for 10 min and stored at −20°C before analysis. The plasma / cell samples were extracted using a liquid–liquid extraction technique. To each tube containing 100 µL plasma, 10 µL internal standard (digoxin, 1.0 µg/mL) and 1.0 mL of n-butanol were added. The mixture was then vortex-extracted for 2 min, and centrifuged for 10 min at 10,000 g. […] The plasma concentration-time curves of ginsenosides in rats were obtained by plotting the mean plasma concentrations versus time. Pharmacokinetic parameters were calculated using the WinNonlin 6.3 program (Pharsight Inc., Mountain View, CA). The elimination half-life (t 1/2) value was calculated as 0.693/β, where β is the elimination rate constant calculated from the terminal linear portion of the log plasma concentration-time curve. The total areas under the plasma concentration- time curve from time 0 to the last quantifiable time point (AUC0-t) and from time 0 to infinity (AUC0-∞) were calculated using the log trapezoidal rule. [drawing 3] The maximum plasma concentrations (C max) for ginsenosides were obtained by visual inspection of the plasma concentration-time curve, whereas the initial drug concentration (the extrapolated concentration at zero time) of the drug after intravenous injection was calculated by back-extrapolation of the plasma concentration-time curve to the y-axis.

[6] = LLC-PK1, pH 7.4, with verapamil 10 µM, L-MDR1 cells, presence of 10 µM verapamil
[7] = female, Sprague-Dawley, rat, plasma, po, rats, SLE 500 mg/kg ig once a day for 10 days, day 11 digoxin 0.5 mg/kg or GE 120 mg/kg ig
[8] = female, Sprague-Dawley, rat, plasma, po, rats, control: vehicle once a day for 10 days, day 11 digoxin 0.5 mg/kg or GE 120 mg/kg ig
[9] = rats, SLE 500 mg/kg ig once a day for 10 days, day 11 digoxin 0.5 mg/kg or GE 120 mg/kg ig

Effect of verapamil on intracellular accumulation [1]	Effect of SLE on intracellular accumulation [1]	Effect of verapamil on efflux ratio / Papp [2]	Effect of SLE on efflux ratio / transport [2]	P-gp substrate classification [2]	efflux ratio at 2 h, 100 µg/mL (P-gp (MDR1); [6])	Increase of intracellular concentration by SLE ([3]; 2.0 µg/mL SLE) [fold]	Increase of intracellular concentration by SLE ([3]; 10.0 µg/mL SLE) [fold]	Effect of verapamil on transport (efflux ratio) [4]	Effect of SLE on transport (AP→BL, BL→AP) [4]	Structure (SMILES)	also measured
no significant difference	no significant difference	significantly decrease of ER	significantly decreased	moderate P-gp substrates	1.42	1.9	3.5	No transport difference	No transport difference	CC(C)=CCC[C@](C)(O[C@@H]1O[C@H](CO[C@@H]2O[C@@H](CO)[C@H](O)[C@H]2O)[C@@H](O)[C@H](O)[C@H]1O)[C@H]1CC[C@]2(C)[C@@H]1[C@H](O)C[C@@H]1[C@@]3(C)CC[C@H](O[C@@H]4O[C@H](CO)[C@@H](O)[C@H](O)[C@H]4O[C@@H]4O[C@H](CO)[C@@H](O)[C@H](O)[C@H]4O)C(C)(C)[C@@H]3CC[C@]12C [Rc, ginsenoside Rc]	efflux ratio at 2 h, 100 µg/mL (P-gp (MDR1); LLC-PK1, pH 7.4, L-MDR1 cells, control (absence of verapamil), GE 100 µg/mL, 2 h): > 3.5; Increase of AUC (AUC0-∞) by 10 continuous days administration of SLE ([5]; female, Sprague-Dawley, rat, in vivo): 1.16 fold; t1/2 ([5]; female, Sprague-Dawley, rat, in vivo, po): 20.81 ± 9.64 h; Tmax ([5]; female, Sprague-Dawley, rat, in vivo, po, Tmax): 11.2 ± 1.79 h; half-life ([5]; female, Sprague-Dawley, rat, in vivo, po, t1/2): 26.8 ± 3.08 h
no significant difference	no significant difference	significantly decrease of ER	significantly decreased	moderate P-gp substrates	2.19	2.9	4.3	No transport difference	No transport difference	CC(C)=CCC[C@](C)(O[C@@H]1O[C@H](CO)[C@@H](O)[C@H](O)[C@H]1O)[C@H]1CC[C@]2(C)[C@@H]1[C@H](O)C[C@@H]1[C@@]3(C)CC[C@H](O[C@@H]4O[C@H](CO)[C@@H](O)[C@H](O)[C@H]4O[C@@H]4O[C@H](CO)[C@@H](O)[C@H](O)[C@H]4O)C(C)(C)[C@@H]3CC[C@]12C [Rd, ginsenoside Rd]	AUC [5, 7]: 7640 ± 2690 ng·h/mL; Cmax [5, 7]: 265 ± 49.4 ng/mL; AUC(0-inf) [5, 7]: 11700 ± 8560 ng·h/mL; MRT inf [5, 7]: 26.3 ± 90.6 h; half-life ([5]; female, Sprague-Dawley, rat, plasma, po, rats, SLE 500 mg/kg ig once a day for 10 days, day 11 digoxin 0.5 mg/kg or GE 120 mg/kg ig, read-out: t1/2 (converted)): 18 ± 75.9 h; AUC [5, 8]: 6570 ± 1820 ng·h/mL; Cmax [5, 8]: 262 ± 104 ng/mL; AUC(0-inf) [5, 8]: 7460 ± 2340 ng·h/mL; MRT inf [5, 8]: 22.4 ± 9.98 h; half-life ([5]; female, Sprague-Dawley, rat, plasma, po, rats, control: vehicle once a day for 10 days, day 11 digoxin 0.5 mg/kg or GE 120 mg/kg ig, read-out: t1/2 (converted)): 20.8 ± 9.64 h; Cl_F_obs [5, 9]: 0.0125 ± 0.0084 L/h; Tmax [5, 9]: 8.00 ± 2.45 h; Increase of AUC (AUC0-∞) by 10 continuous days administration of SLE ([5]; rats, SLE 500 mg/kg x 10 days vs vehicle, GE ig on day 11): 1.60 fold; Tmax ([5]; rats, control: vehicle once a day for 10 days, day 11 digoxin 0.5 mg/kg or GE 120 mg/kg ig): 8.00 ± 2.45 h
